Laboratory results reported in article PMC6073479, “Cecropin A Modulates Tight Junction-Related Protein Expression and Enhances the Barrier Function of Porcine Intestinal Epithelial Cells by Suppressing the MEK/ERK Pathway” (International Journal of Molecular Sciences, 2018).
No end group written: not given here.

Experiments:
[1] = system: E. coli adherence to IPEC-J2 cells; test: Quantifying adherent bacteria (CFU); type: cell-based, Escherichia coli; settings: n = 3
Experimental: To calculate the number of adherent E. coli, E. coli were cocultured with IPEC-J2 cells in DMEM/high-glucose medium (no penicillin/streptomycin, no FBS). Then, the cells were washed with PBS six times and lysed with 1% Triton X-100 for 20 min at room temperature. Next, 5 μL lysates were plated on MacConkey agar plates overnight. The total number of bacteria was quantified as CFUs.

[2] = system: IPEC-J2 cells; settings: MTT; 1.5–12.5 μg/mL, 8 h; compared to control group
Experimental: IPEC-J2 cells were cultured at 37 °C in 100% humidity and 5% CO2 conditions with DMEM/F12 (Thermo, Waltham, MA, USA) supplemented with 5% fetal bovine serum (Gibco, Waltham, MA, USA) and 1% penicillin/streptomycin.
Thiazolyl blue tetrazolium bromide (MTT) was purchased from Sigma-Aldrich (St. Louis, MI, USA). The MTT was dissolved in PBS (5 mg/mL). The cytotoxicity of AMPs to IPEC-J2 cells was tested by using an MTT assay. A density of 1 × 10^5 cells in 180 μL medium per well was seeded in 96-well plates (Corning, New York, NY, USA), and then 20 μL AMPs was added. The final concentrations were 200, 100, 50, 25, 12.5, 6.25, 3.125, were 1.56 μg/mL. After 8 h culture, 20 μL MTT was added, and then the cells were continued to culture for 4 h. The supernatant was discarded, and 150 μL DMSO was added. After 30 min shaking at room temperature, the absorbance was measured at a wavelength of 490 nm. The cell viability was calculated by using the following equation:Cell viability = (ODControl − ODAMP)/ODControl × 100%

[3] = system: claudin-1 protein expression; test: Western blotting of claudin-1; type: cell-based, porcine; settings: IPEC-J2 cells, versus control group, n = 3
Experimental: (§1) The total protein was extracted with lysis buffer. The concentration of protein was tested by using a BCA protein assay kit (Thermo Scientific, Waltham, MA, USA) and mixed with 5× loading buffer. 20 μg protein sample was loaded in each well. The supernatant was then separated by 10% SDS-PAGE and transferred onto a PVDF membrane (Millipore, Burlington, MA, USA). After blocking with 5% skimmed milk powder, the membrane was incubated with the appropriate primary antibodies overnight at 4 °C, followed by incubation with a horseradish peroxidase (HRP)-conjugated secondary antibody for 2 h. Bands were detected using an ECL Western Blotting Substrate (Thermo Scientific, Waltham, MA, USA). Band intensity was quantified using ImageJ software. The primary antibodies including β-actin, p-MEk, MEK, p-ERK, ERK, CDX2 were purchased from Cell Signaling Technology (CST, Danvers, MA, USA).

[4] = system: IL-6 mRNA expression; test: qPCR of IL-6 mRNA in IPEC-J2 cells cocultured with E. coli; type: cell-based, porcine; settings: IPEC-J2 cells after coculture with E. coli, treatment for 48 h, compared to non-treated cells, n = 6
Experimental: (§2) Total RNA was extracted using TRIzol reagent according to the manufacturer’s instructions. Concentration and purity of RNA was checked by using a NanoDrop 2000. cDNA was generated from 1 μg total RNA using a First Strand cDNA Synthesis Kit (Thermo Scientific, Waltham, MA, USA). Quantitative PCR (qPCR) was performed to quantify mRNA expression levels of IL-6, IL-8 and TNF-α relative to that of a housekeeping gene, glyceraldehyde-3-phosphate dehydrogenase (GAPDH) by using SYBR Green mix (ABI) according to the manufacturer’s instructions.

[5] = system: CDX2 protein level; test: Western blotting of CDX2; type: cell-based, porcine; settings: IPEC-J2 cells, compared with control group, p < 0.001, n = 3
Experimental: as §1

[6] = system: gram-negative bacterial strains, such as E. coli, Salmonella and Pseudomonas aeruginosa; test: MIC/MBC test; type: cell-based; settings: gram-negative strains versus Staphylococcus aureus
Experimental: The Escherichia coli ATCC 35401, ATCC 35150, ATCC 25922, and SSI 82000, Pseudomonas aeruginosa ATCC 9027 and ATCC 27853, Salmonella ATCC13312 and ATCC9120, Salmonella typhimurium ATCC 14028, and Staphylococcus aureus ATCC 29213 strains were purchased from Guangdong Culture Collection Center. The Escherichia coli W25K strain was isolated from a piglet with diarrhea as described previously. The strains were cultured in LB medium to logarithmic growth period (OD = 0.5) and then were transferred to Mueller-Hinton Broth (MHB) medium for the minimum inhibitory concentration (MIC) or minimum bactericidal concentration (MBC) test.
The MIC test was assessed according to the process of the Clinical and Laboratory Standards Institute. The bacterial strains were diluted with MHB medium, and the concentration was 5 × 10^5 CFU/mL. Then, 180 μL bacterial suspension was transferred to 96-well cell plates. […] Then, the bacteria were cultured at 37 °C for 8 h.

[7] = system: ZO-1, claudin-1 and occludin membrane distribution; test: Cell immunofluorescence of tight junction proteins; type: cell-based, porcine; settings: IPEC-J2 cells, 400×, n = 3
Experimental: (§3) To test the expression and location of tight junction proteins (ZO-1, occludin and claudin-1) and the cytoskeleton (F-actin), cell immunofluorescence was used. The IPEC-J2 cells were cultured and became confluent on the slide. After treatment, the cells were washed with PBS three times, fixed with 4% polyoxymethylene for 30 min, and then washed by PBS again three times. For F-actin staining, 0.5% Triton X-100 was added for 20 min. After that, 0.5% bovine serum albumin was added for 1 h, and then the primary antibodies were added and incubated with the cells at 4 °C overnight. The slides were then washed with PBST three times, and the FITC-labeled secondary antibody was added for 2 h. At last, the cell nuclei were stained by using DAPI (Santa Cruz Biotechnology, Dallas, TX, USA). The slides were then observed by using a fluorescence microscope. Primary antibodies including occludin (Abcam, Cambridge, UK), claudin-1 (CST, Danvers, MA, USA) and ZO-1 (Thermo Fisher Scientific, Waltham, MA, USA) were used. For staining F-actin, FITC-phalloidin (Sigma-Aldrich, St. Louis, MI, USA) was used.

[8] = system: IL-8 mRNA expression; test: qPCR of IL-8 mRNA in IPEC-J2 cells cocultured with E. coli; type: cell-based, porcine; settings: IPEC-J2 cells after coculture with E. coli, treatment for 48 h, compared to non-treated cells, n = 6
Experimental: as §2

[9] = system: IPEC-J2 cell monolayer; test: Transepithelial electrical resistance (TER) measurement; type: cell-based, porcine
Experimental: To evaluate the barrier integrity of IPEC-J2 cells, the transepithelial resistance (TER) and was measured, and a permeability assay was performed. The initial TER was tested before the cells were seeded. IPEC-J2 cells were then seeded in a Transwell membrane insert ([…], 0.4 μm pore size, Corning) at a density of 7 × 10^5 cells/well. Then, 200 μL and 500 μL medium was added to the apical and basal compartments, respectively. Cecropin A (12.5 μg/mL) was added to the apical and basal compartments. The TER values were measured every day by using an ohm-meter fitted with chopstick electrodes (Millipore ESR-2; Burlington, MA, USA). Before each test, the plates were placed at room temperature for 30 min. The TER was calculated by using the following equation:TER (Ω·cm^2) = (TER − TERinitial) × 0.3

[10] = system: IPEC-J2 cell monolayer; test: FITC-dextran paracellular permeability assay; type: cell-based, porcine; settings: 12.5 μg/mL; 48 h and 72 h; FITC-dextran 5 mg/mL apical, 2 h; fluorescence 480/520 nm; p < 0.05; n = 6
Experimental: To evaluate the permeability of the monolayer intestinal cells, FITC-dextran was used. FITC-dextran (Sigma-Aldrich, St. Louis, MO, USA) was dissolved in PBS at 5 mg/mL. After the medium was discarded, 200 μL FITC-dextran was added to the apical compartment, and 500 μL PBS was added to the basal compartment and cultured for 2 h. Then, 100 μL liquid from each well was transferred to 96-well plates, and the […] was read at 480 nm excitation and 520 nm emission wavelengths. Then, the content of the FITC-dextran in the basal compartment was calculated using a standard curve.

[11] = system: ERK phosphorylation; test: Western blotting of p-ERK(1/2)/ERK(1/2); type: cell-based, porcine; settings: IPEC-J2 cells, versus control group, p < 0.01, n = 3
Experimental: as §1

[12] = system: MEK phosphorylation; test: Western blotting of p-MEK/MEK; type: cell-based, porcine; settings: IPEC-J2 cells, versus control group, p < 0.01, n = 3
Experimental: as §1

[13] = system: TNF-α mRNA expression; test: qPCR of TNF-α mRNA in IPEC-J2 cells cocultured with E. coli; type: cell-based, porcine; settings: IPEC-J2 cells after coculture with E. coli, treatment for 48 h, compared to non-treated cells, n = 6
Experimental: as §2

[14] = system: F-actin polymerization; test: Cell immunofluorescence of F-actin (FITC-phalloidin); type: cell-based, porcine; settings: IPEC-J2 cells; FITC-phalloidin staining, 400×; n = 3
Experimental: as §3

[15] = system: occludin protein expression; test: Western blotting of occludin; type: cell-based, porcine; settings: IPEC-J2 cells, versus control group, n = 3
Experimental: as §1

[16] = system: ZO-1 protein expression; test: Western blotting of ZO-1; type: cell-based, porcine; settings: IPEC-J2 cells, versus control group, n = 3
Experimental: as §1

Compound | adherence of E. coli ([1]; IPEC-J2 cells, inhibitor 10 μM for 48 h, compared to cecropin A group) | IPEC-J2 cell viability [2] | claudin-1 protein level [3] | IL-6 mRNA expression [4] | E. coli adherence (CFU of adherent bacteria) ([1]; IPEC-J2 cells pretreated with 3.125, 6.25 and 12.5 μg/mL for 48 h) | CDX2 protein level [5] | antibacterial activity against E. coli, Salmonella typhimurium and Pseudomonas aeruginosa compared with Staphylococcus aureus [6] | membrane distribution of ZO-1, claudin-1 and occludin (TJs) [7] | IL-8 mRNA expression [8] | TER values ([9]; IPEC-J2 monolayer on Transwell, 12.5 μg/mL apical and basal, at 48 h and 72 h, compared to control cells, p < 0.01, n = 6) | TER values ([9]; inhibitor experiment (Figure 5), 24 and 48 h, compared with control group, n = 3) | permeability of the IPEC-J2 cell monolayer (4 kDa FITC-dextran in basal compartment) [10] | ERK phosphorylation [11] | MEK phosphorylation [12] | TNF-α mRNA expression [13] | F-actin polymerization / distribution [14] | occludin protein level [15] | ZO-1 protein level [16]
O=C(NOCC1CC1)c1ccc(F)c(F)c1Nc1ccc(I)cc1Cl [PD184352] | reduced | – | – | – | – | – | – | – | – | – | – | – | – | – | – | – | – | –
KWKLFKKIEKVGQNIRDGIIKAGPAVAVVGQATQIAK-NH2 (C-terminus assumed) [cecropin A] | – | not reduced | significantly upregulated | downregulated | reduced E. coli adherence in a dose-dependent manner | upregulated | much higher | much more polymerized at the cell–cell boundary | downregulated | significantly increased | significantly higher | reduces the permeability | downregulates | downregulates | downregulated | much more polymerized at the cell–cell boundary | significantly upregulated | significantly upregulated
